Data published in patent US10695371B2, “Modification of extracorporeal photopherisis technology with porphyrin precursors” (Oslo Universitetssykehus HF, priority 2014, dated 2020).
“Also recorded” adds a separate entry of the source.

What was measured:
Jurkat cells [1] = assay: Assessment of apoptotic cells by fluorescence microscopy (Hoechst 33342 / PI); type: cell-based, human
Procedure: The cells were collected from the cultivation flasks, centrifuged at 1400 rpm for 5 min and diluted in the serum-free RPMI 1640 medium to a density of 37.5×10^5 cells/ml. Eighty microliters of cell suspension were portioned into 96 well plates. […] For the UV-A irradiation of samples, a home-made UV-A lamp (Sorensen UV-A lamp, Phillips Th […]/09) emitting light mainly in the region 340-410 nm was used (FIG. 1). For the blue light illumination of samples, the light from a bank of four fluorescent tubes (model 3026, Applied Photophysics, London, United Kingdom) emitting light mainly in the region 410-500 nm with a maximum around 440 nm was used (FIG. 1). Apoptotic cells were identified by fluorescence microscopy based on nuclear morphology after staining with 4.0 μg/mI Hoechst 33342 (Sigma, St. Louis, Mo.) at 37° C. for 10 min. This assay was verified in our previous experiments. […] For PI fluorescence detection, the filter combination consisted of a 540/25 nm excitation filter, a 565 nm beam splitter, and a 605/55 nm band-pass emission filter. Fluorescence images were captured by a highly light sensitive thermo-electrically cooled charge-coupled device camera […] (Hamamatsu, Japan).

Jurkat cells [2] = assay: In vitro long term cell survival assay in methylcellulose-based semisolid medium; design: species or system human
Procedure: The cells were collected from the cultivation flasks, centrifuged at 1400 rpm for 5 min and diluted in the serum-free RPMI 1640 medium to a density of 37.5×10^5 cells/ml. Eighty microliters of cell suspension were portioned into 96 well plates. […] For the UV-A irradiation of samples, a home-made UV-A lamp (Sorensen UV-A lamp, Phillips Th […]/09) emitting light mainly in the region 340-410 nm was used (FIG. 1). For the blue light illumination of samples, the light from a bank of four fluorescent tubes (model 3026, Applied Photophysics, London, United Kingdom) emitting light mainly in the region 410-500 nm with a maximum around 440 nm was used (FIG. 1). Methylcellulose-based medium human MethoCult® with recombinant cytokines, (H4034, StemCell Technologies, France) was used for survival assay. […] The samples were treated according to the manufacturer's instructions and suspensions were transferred into 35 mm Petri dishes. They were incubated at 37° C. in a humidified incubator with 5% CO2.

[3] = tested on: human T-cell lymphoma cell line, Jurkat; assay: In vitro cell proliferation assay (MTS) after HAL and/or 8-MOP plus light; type: cell-based; conditions: for Dark toxicity (MTS assay): no light
Procedure: The human T-cell lymphoma cell line, Jurkat (ATCC number: TIB-152TM), growing in suspensions at passages 4-24 was used in the study. […] For subcultivation, the cells were diluted to a density of 3×10^5 cells/ml every second day. […] The cells were collected from the cultivation flasks, centrifuged at 1400 rpm for 5 min and diluted in the serum-free RPMI 1640 medium to a density of 37.5×10^5 cells/ml. Eighty microliters of cell suspension were portioned into 96 well plates. […] For the UV-A irradiation of samples, a home-made UV-A lamp (Sorensen UV-A lamp, Phillips Th […]/09) emitting light mainly in the region 340-410 nm was used (FIG. 1). For the blue light illumination of samples, the light from a bank of four fluorescent tubes (model 3026, Applied Photophysics, London, United Kingdom) emitting light mainly in the region 410-500 nm with a maximum around 440 nm was used (FIG. 1). […] Twenty four hours after irradiation, 20 μl of MTS (Promega Corporation, Madison, Wis.) was added to each well. Absorbance at 492 nm was measured after one hour incubation at 37° C. by means of a well plate reader (Multiskan Ex, Labsystems, Finland).

[4] = tested on: CD4+ T lymphocytes collected from a GvHD patient; assay: Ex vivo ALA-ECP killing of patient CD4+ T lymphocytes (flow cytometry); type: cell-based, human; conditions: particularly at a low light dose, 5-min light illumination
Procedure: (§1) A suitable dose and incubation time of ALA was used in leukocyte samples collected from ECP patients. The dark toxicity of ALA at the concentration in question was evaluated, followed by the ALA/UVA-mediated killing efficiency before studies on the mechanism of its action (apoptosis/necrosis). The lymphocytes from patients were incubated with ALA under the optimized experimental conditions before exposure to the UVA lamp in the Therakos Photopheresis System at the same light dose as used in the ECP treatment. The cell survival of ALA dark toxicity, ALA/UVA-mediated killing efficiency and apoptosis/necrosis were measured with flow cytometry using combined labelling of CD4^+ or CD8^+ with Annexin V/PI staining.
(§2) The killing effects of 5-ALA (a porphyrin precursor) plus the UVA light irradiation on CD4^+/CD8^+ T lymphocytes collected from a Graft versus Host Disease (GvHD) patient who went to a standard photopheresis treatment was evaluated. The cells were exposed to ALA+UVA in the standard photopheresis machine, and percentage survival evaluated at various timepoints between 1 h and 20 h. The 8-MOP plus UVA used for the standard photopheresis was also included for comparison. The cell survival was measured with flow cytometry using a combined staining of CD4/CD8 antibody, Annexin-V and eFluor450.

[5] = tested on: Jurkat human T-cell lymphoma cells; assay: ALA/UVA killing of Jurkat cells (PI staining); type: cell-based; conditions: 1 mM ALA for 1 hour, 10% foetal bovine serum, then UVA light exposure
Procedure: Optimization of experimental conditions for ALA-ECP was performed in Jurkat cells, varying ALA concentration (1 to 5 mM) and treatment time (1 to 4 hours) in the presence of 10% foetal bovine serum. The cells were then exposed to UVA for 10 min using an UV-A lamp with almost identical emission spectra to those of the UV-A lamp used in the existing commercial Therakos photopheresis system. The cell survival after the ALA/UVA treatment was measured by fluorescence microscopy with propidium iodide (PI) staining.

[6] = tested on: CD8+ T lymphocytes collected from a GvHD patient; assay: Ex vivo ALA-ECP killing of patient CD8+ T lymphocytes (flow cytometry); type: cell-based, human; conditions: particularly at a low light dose, 5-min light illumination
Procedure: as §1, §2

[7] = tested on: human leukocytes from GvHD or CTLC patients; assay: 5-ALA dark toxicity on human leukocytes; type: cell-based; conditions: 10 mM 5-ALA, 17-24 hours, no light
Procedure: The general safety of 5-ALA in absence of light-mediated activation (dark toxicity) was next evaluated. Blood samples from 10 GvHD or CTLC patients were treated with 10 mM 5-ALA at 37° C. in a 5% CO2 humidified incubator overnight (17-24 hours). Buffy coat samples from patients were directly harvested from the Therakos Photopheresis System during the standard photopheresis treatment. The cells incubated with the culture medium containing no 5-ALA were also included as a control in all individuals. The leukocytes were then labelled with antibodies for flow cytometry analysis of various subpopulations. The antibodies used were: CD45 PerCP-Cyanine5.5 for leukocytes, CD4 FITC for T helper cells, CD8 FITC for T cytotoxic cells and CD19 FITC for B-cells. The cells were also labelled with Fixable Viability Dye eFluor 450 for dead cells and Annexin V for apoptotic/dead cells. The different subpopulations of leukocytes were gated out and analyzed for cell viability. The cells that were negative for both the Fixable Viability Dye eFluor 450 and Annexin V were considered as viable cells.

humans = conditions: oral ALA; normally resolves after 48 hours; cited from earlier work
[8] = tested on: Proliferative (transformed or activated) T-cells; assay: ALA-induced PpIX production in proliferative versus resting T-cells; type: cell-based
mice = conditions: cited from earlier work
rats = conditions: cited from earlier work

Question: With `CCCCCCOC(=O)CCC(=O)CN` [HAL, hexyl 5-amino-4-oxopentanoate] as the molecule, how does the “Cell appearance 20 hours after treatment” value (Jurkat cells [1]; 1.55 μM HAL, 10 min UV-A, sample to sample variations) read?
Answer: Its value is “mostly apoptotic + some alive, or; also recorded: mostly necrotic + some apoptotic*”.

Question: And the “apoptotic bodies, twenty hours following treatment” value (Jurkat cells [1]; 5.00 μM HAL and 10 min UV-A irradiation)?
Answer: Its value is “no apoptotic bodies could be seen”.

Question: What about the “Cell appearance 20 hours after treatment” value (Jurkat cells [1]; 5.00 μM HAL, 10 s UV-A) of the same molecule?
Answer: The value was “apoptotic + alive (similar”.

Question: And the “Cell appearance 20 hours after treatment” value (Jurkat cells [1]; 5.00 μM HAL, 10 s blue light)?
Answer: Its value is “mostly apoptotic + some alive”.

Question: And the “Cell appearance 20 hours after treatment” value (Jurkat cells [1]; 5.00 μM HAL, 10 min UV-A)?
Answer: Its value is “only necrotic, no apoptotic”.

Question: And the “Number of colonies (high cell density areas formed in semisolid medium 2 weeks after treatment)” value (Jurkat cells [2]; 5.00 μM HAL/10 min UV-A)?
Answer: Its value is 0.

Question: And the “Number of colonies (high cell density areas formed in semisolid medium 2 weeks after treatment)” value (Jurkat cells [2]; 7.40 μM HAL/10 s blue light)?
Answer: The value was 4.5 ± 5.6.

Question: What about the “number of experiments when colonies were formed/total number of experiments” value (Jurkat cells [2]; 7.40 μM HAL/10 s blue light) of the same molecule?
Answer: Its value is 4/6.

Question: And the “Cell proliferation, evaluated by MTS assay” value ([3]; HAL 4 h, 10 or 20 s blue light or 5 or 10 min UV-A)?
Answer: The value was “decrease in a concentration-dependent manner”.

Question: What about the “Dark toxicity (MTS assay)” value ([3]; HAL up to 11.00 μM) of the same molecule?
Answer: The value was “no indication for dark toxicities”.

Question: What about the “HAL concentration sufficient to decrease cell proliferation to minimum after light exposure” value ([3]; UV-A 5 or 10 min) of the same molecule?
Answer: Its value is 5.00 µM.

Question: Which results are given for `COc1c2occc2cc2ccc(=O)oc12` [8-MOP, 8-methoxypsoralen]?
Answer: mode of cell death, twenty hours following treatment (Jurkat cells [1]; 1.00 μM 8-MOP followed by UV-A): almost all the cells seemed to die by apoptosis; Number of colonies (high cell density areas formed in semisolid medium 2 weeks after treatment) (Jurkat cells [2]; 1.00 μM MOP/10 min UV-A): 0.8 ± 2.0; number of experiments when colonies were formed/total number of experiments (Jurkat cells [2]; 1.00 μM MOP/10 min UV-A): 1/6; ability to sensitise the cells to photoinactivation when UV-A lamp spectrum shifted by few nm ([3]; 1.00 μM 8-MOP): significantly increased; Effect of presence of 8-MOP on cell proliferation during HAL-based PDT with blue light ([3]; 1.00 μM 8-MOP, blue light): did not affect cell proliferation; Dark toxicity (MTS assay) ([3]; 8-MOP up to 1.00 μM): no indication for dark toxicities; cell proliferation measured by MTS assay with increasing 8-MOP concentration ([3]; UV-A 5 and 10 min, absence of HAL): decreasing cell proliferation

Question: Which results are given for `NCC(=O)CCC(=O)O` [ALA, 5-aminolevulinic acid]?
Answer: killing of CD4+ T-cells, ALA plus UVA versus 8-MOP plus UVA [4]: much more effectively than 8-MOP plus UVA; Jurkat cells killed [5]: More than 95%; killing of CD8+ T-cells, ALA plus UVA versus 8-MOP plus UVA [6]: much more effectively than 8-MOP plus UVA; dark cytotoxic effect on leukocytes [7]: no significant dark cytotoxic effect; most common side effects (humans): nausea, vomiting and a transient rise in liver enzymes; ALA-induced PpIX production, proliferative versus normal resting T-cells [8]: about 15 fold; LD50 (mice; mice, single dose of oral or intraperitoneal administration): 2,500 mg/kg body weight; toxic effects after single intravenous injection (mice; mouse, in vivo, iv, 500 mg/kg): No observable toxic effects; toxic effects after single intravenous injection (rats; rat, in vivo, iv, 250 mg/kg): No observable toxic effects; LD50 (rats; rats, single dose of oral or intraperitoneal administration): 2,500 mg/kg body weight
